Consider three compounds from patent publication US20240287071A1, “CLASS OF IMIDAZOLIDINOPYRIMIDONE COMPOUNDS AND USE THEREOF IN TREATMENT OF HSCLPP-MEDIATED DISEASES” (SICHUAN UNIVERSITY, priority 2021, published 2024).

Data set [1] addresses T1, HsClpP (Homo sapiens, UniProt Q16740). Description: Isothermal Titration calorimetry (ITC). In kind it is binding. To be noted: FIG. 3. As for the experimental part: Isothermal Titration calorimetry experiments can measure the binding affinity between small molecules and proteins. Binding affinity is generally measured and reported through the equilibrium dissociation constant (Kd), where the smaller the Kd value, the higher the binding affinity of the ligand for its target. In the experiment, the loading-samples and proteins were placed in a degassing apparatus at 30° C., with a vacuum degree of 400 mmHg or higher, and degassed for 10 minutes. A 50 mL PBS buffer was prepared, and the sample cell and syringe were rinsed. After rinsing, the liquid in the sample cell was completely removed, and the degassed protein and small molecules were taken out. The sample cell was thoroughly washed with protein, and the syringe was rinsed with the small molecule solution 3-5 times. After washing, 250 μL of protein (0.5 mM) was extracted using the syringe, avoiding the formation of bubbles. Subsequently, 200 μL was injected into the sample cell. 50 μL of the small molecule solution (0.1 mM) was extracted using an injector, again avoiding the formation of bubbles. The titration syringe was loaded onto the instrument, and titration commenced after the instrument was balanced.

The subject of data set [2] is HCT116 cells. Description: Wound-healing cell migration assay. In kind it is cell-based, human. To be noted: 24 hours; compared to the control group and the ONC201 group; FIG. 12. From the text:
Example 12: In vitro Antitumor Cell Migration Assay of Preferred Compound. Studies have shown that increased expression of HsClpP is crucial for the proliferation and migration of certain cancer cell lines, while functional disruption of HsClpP in cancer cells can inhibit cell migration.
Wound-Healingcan be used to detect the invasive ability of adherent tumor cells. By observing the healing ability of tumor cells towards scratches under different conditions, the impact of the compound on the ability of tumor cell migration can be reflected.

Data set [3] has as its system SDHB and ATF4. Description: Levels of SDHB and ATF4 in HCT116 cells. To be noted: dose-dependently; FIG. 7.
Data set [4] deals with T1, HsClpP. Description: HsClpP enzyme hydrolysis of short peptide substrate AC-WLA-AMC. To be noted: promoting hydrolysis of short peptide substrate by HsClpP, relative to blank control.
Description: This study evaluated the regulatory activity of the compounds on HsClpP by examining the hydrolysis effects of HsClpP protein on the AC-WLA-AMC substrate . […] The small molecules and the HsClpP protein solution were added to a flat-bottomed black 96-well plate, with three replicate wells for each group. […] DMSO was used as a negative control instead of small molecules. The multiple of readings at different concentrations against the readings of DMSO group was recorded as an index for evaluation of hydrolysis activity. . . . GraphPad Prism was used to plot the obtained multiple values and calculate the EC50 values.
In data set [5] the test system is A549. Description: CCK-8 in vitro anti-tumor proliferation assay. In kind it is cell-based. To be noted: Homo sapiens, A549, 72 h, read-out: IC50(uM) A549.
In data set [6] the test system is MV-4-11. Nature of the data set: CCK-8 in vitro anti-tumor proliferation assay. In kind it is cell-based. To be noted: Homo sapiens, MV4-11, 72 h, read-out: IC50(uM) MV-4-11.
Data set [7] deals with Raji. Nature of the data set: CCK-8 in vitro anti-tumor proliferation assay. In kind it is cell-based. Particulars: Homo sapiens, 72 h, read-out: IC50(uM) Raji.
Data set [8] has as its system HCT116 cells. Description: Apoptosis, Annexin V/PI staining. To be noted: 1.25 μM; FIG. 10.
In data set [9] the test system is human normal embryonic kidney cells (HEK293). Description: In vitro cytotoxicity assay, CCK-8. To be noted: up to 50μM; FIG. 13.
Description: (§1) CCK8 and DMSO were products of Sigma. For in vitro experiment, the test compounds were prepared as 10 mM stock solutions in DMSO and stored at −20° C. in the refrigerator in the dark for later use, then diluted to desired concentration with complete culture medium before use. […] The previous culture medium was discarded, fresh culture medium was added to resuspend the cells, and then the cells were counted. According to the growth rate of different cells, the cell seeding concentration was determined, generally being 3000-5000 cells/well. After determining the seeding concentration, the cell suspension was diluted to desired concentrations with fresh culture medium, and then added to a 96-well plate with 100 μL per well, and 200 μL of PBS was added to the edge wells to prevent evaporation of the culture medium. On the second day, drug treatment was performed.
Data set [10] deals with rat myocardial cells (H9C2). Nature of the data set: In vitro cytotoxicity assay, CCK-8. To be noted: FIG. 13.
Description: as §1
For data set [11], the system named is HCT116 CRC xenograft tumors. Nature of the data set: HCT116 xenograft nude mouse model. Particulars: 100 mg/kg oral, twice a week, six doses.
Excerpt: (A) Observation of tumor size in mice after treatment; (B) Photographs of excised tumor tissue after treatment; (C) Relative change in mouse body weight during treatment; (D) Relative volume change of tumors during treatment. Measurements were taken every other day; N=6 animals per group.

Where only a bound is given, the exact number is not on record here.

T1 sequence (Q16740 57-277): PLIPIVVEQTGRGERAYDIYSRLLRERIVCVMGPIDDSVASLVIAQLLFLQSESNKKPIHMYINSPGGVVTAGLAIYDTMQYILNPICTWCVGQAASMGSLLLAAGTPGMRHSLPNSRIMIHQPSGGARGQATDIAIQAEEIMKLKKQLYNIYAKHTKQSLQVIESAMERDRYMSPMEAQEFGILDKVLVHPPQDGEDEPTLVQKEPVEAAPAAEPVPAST

With `O=c1nc2n(c3c1CN(Cc1ccccc1)CC3)CCN2Cc1ccc(F)c(Br)c1` [Compound 21, 7-benzyl-3-(3-bromo-4-fluorobenzyl)-2,3,6,7,8,9-hexahydroimidazo[1,2-a]pyrido[3,4-e]pyrimidin-5 (1H)-one], the “ITC thermodynamics of titration with HsClpP (AH, AS)” value in data set [1] is “AH<0, AS<0”. In data set [2], the “migration ability of HCT116 cells” value is listed as “significantly inhibited”. Moreover, in data set [3], the ATF4 level result is listed as “ATF4 accumulation” and the SDHB level result was “reduction in SDHB level”. Also, in data set [4] (1 μM), the “Regulatory efficacy 1 μM” value is given as “+ +”. The “Regulatory efficacy 10 μM” value in data set [4] (10 μM) is listed as “+ +”.

The IC50 is the concentration needed to halve the response being measured. Regarding `Cc1ccccc1CN1C(=O)C2=C(CCN(Cc3ccccc3)C2)N2CCN=C12` [ONC201, reference compound], the IC50 was determined as 10 µM in [5], 5 µM in data set [6] and 2.5 µM in data set [7]. This compound returned an apoptotic rate in [8] of less than 4.09%. Besides, the “cytotoxicity on HEK293 cells” value in [9] was “no significant cytotoxicity”. For the same compound, the “inhibitory activity on H9C2 cells” value in data set [10] is listed as “no significant inhibitory activity”. Further, the ATF4 level result in data set [3] was “ATF4 accumulation”. In [3], the SDHB level entry was “reduction in SDHB level”.

As to `Cc1ccccc1CN1C(=O)C2=C(CCN(Cc3ccccc3)C2)N2CCN=C12` [ONC201·2HCl], the “TGI (tumor growth inhibition)” value in [11] is 57%.
